This assay addresses T1, Purified bovine SOD1 (Bos taurus, UniProt P00442).
T1 construct: commercial purified enzyme (Sigma)
Put plainly: WST-1 reduction by xanthine oxidase-generated superoxide. In kind it is biochemical.

T1 sequence (P00442 2-152): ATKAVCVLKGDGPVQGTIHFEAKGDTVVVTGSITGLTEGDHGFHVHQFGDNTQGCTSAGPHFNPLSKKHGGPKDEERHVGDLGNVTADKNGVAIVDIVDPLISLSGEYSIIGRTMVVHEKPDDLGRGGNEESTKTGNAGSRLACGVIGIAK

Consider `[S]=[Mo](=[S])([SH])[SH]` [ATN-224], for which the IC50 (commonly the point on the concentration scale where inhibition reaches its midpoint) was 2.03 µM.

These data come from paper PMC2259182, “Identification of biomarkers for the antiangiogenic and antitumour activity of the superoxide dismutase 1 (SOD1) inhibitor tetrathiomolybdate (ATN-224)” (British Journal of Cancer, 2008).
